Organism: Rattus norvegicus
Experiment: Open TG-GATES - Regimen: Daily Repeat
Format: toxicity, organism-based, Sprague-Dawley
Design: regimen Daily Repeat, gender Male, age 6 weeks
Conditions: in vivo, po, route gavage; for APTT / Bas / Eos / Fbg / Hb / Ht / Lym / MCH / MCHC / MCV / Mono / Neu / PT / Plat / RBC / Ret / WBC: tissue Blood; for KIDNEY_L / KIDNEY_R / KIDNEY_TOTAL: tissue Kidney; for LIVER: tissue Liver; for A/G / ALP / ALT / AST / BUN / CRE / Ca / Cl / DBIL / GLC / IP / K / LDH / Na / PL / RALB / TBIL / TC / TG / TP / gamma-GTP: tissue Plasma
[1] = 0 mg/kg, 72 h, dose level Control, time 3 day
[2] = 0 mg/kg, […], dose level Control, time 7 day
[3] = 0 mg/kg, […], dose level Control, time 14 day
[4] = 0 mg/kg, […], dose level Control, time 28 day
[5] = 30 mg/kg, 72 h, dose level Low, time 3 day
[6] = 30 mg/kg, […], dose level Low, time 7 day
[7] = 30 mg/kg, […], dose level Low, time 14 day
[8] = 30 mg/kg, […], dose level Low, time 28 day

CCc1cc(C(N)=S)ccn1 [ETHIONAMIDE]
TERMINAL_BW [1]: 250.2 g | APTT [1]: 17.3 s | Bas [1]: 0% | Eos [1]: 1% | Fbg [1]: 262 mg/dL | Hb [1]: 13.2 g/dL | Ht [1]: 38.9% | Lym [1]: 73% | MCH [1]: 22 pg | MCHC [1]: 33.9% | MCV [1]: 64.7 fL | Mono [1]: 7.6% | Neu [1]: 18.6% | PT [1]: 11.9 s | Plat [1]: 128 x10_4/uL | RBC [1]: 601.2 x10_4/ul | Ret [1]: 12.2% | WBC [1]: 130.2 x10_2/uL | KIDNEY_L [1]: 1.1 g | KIDNEY_R [1]: 1.2 g | KIDNEY_TOTAL [1]: 2.3 g | LIVER [1]: 12.8 g | A/G [1]: 1.6 | ALP [1]: 851.8 IU/L | ALT [1]: 39 IU/L | AST [1]: 62.8 IU/L | BUN [1]: 18.2 mg/dL | CRE [1]: 0.5 mg/dL | Ca [1]: 11 mg/dL | Cl [1]: 104.6 meq/L | DBIL [1]: 0.018 mg/dL | GLC [1]: 188.6 mg/dL | IP [1]: 7.3 mg/dL | K [1]: 4.6 meq/L | LDH [1]: 80.2 IU/L | Na [1]: 141 meq/L | PL [1]: 153 mg/dL | RALB [1]: 3.6 g/dL | TBIL [1]: 0.3 mg/dL | TC [1]: 80.6 mg/dL | TG [1]: 99 mg/dL | TP [1]: 5.8 g/dL | gamma-GTP [1]: 2 IU/L | TERMINAL_BW [2]: 270.2 g | TERMINAL_BW [3]: 326.8 g | TERMINAL_BW [4]: 416.8 g | APTT [2]: 17.5 s | Bas [2]: 0% | Eos [2]: 1% | Fbg [2]: 218.4 mg/dL | Hb [2]: 14.1 g/dL | Ht [2]: 41.5% | Lym [2]: 78% | MCH [2]: 21.4 pg | MCHC [2]: 34% | MCV [2]: 62.9 fL | Mono [2]: 8% | Neu [2]: 13% | PT [2]: 11.5 s | Plat [2]: 119.6 x10_4/uL | RBC [2]: 661.6 x10_4/ul | Ret [2]: 3.8% | WBC [2]: 107.3 x10_2/uL | APTT [3]: 18.7 s | Bas [3]: 0% | Eos [3]: 1% | Fbg [3]: 215.4 mg/dL | Hb [3]: 14.8 g/dL | Ht [3]: 43.6% | Lym [3]: 79.6% | MCH [3]: 20.5 pg | MCHC [3]: 33.8% | MCV [3]: 60.8 fL | Mono [3]: 5.4% | Neu [3]: 14.2% | PT [3]: 12 s | Plat [3]: 120.6 x10_4/uL | RBC [3]: 718.8 x10_4/ul | Ret [3]: 4% | WBC [3]: 122.9 x10_2/uL | APTT [4]: 18.6 s | Bas [4]: 0% | Eos [4]: 1.6% | Fbg [4]: 235.8 mg/dL | Hb [4]: 15.6 g/dL | Ht [4]: 46% | Lym [4]: 78.8% | MCH [4]: 19.6 pg | MCHC [4]: 34% | MCV [4]: 57.7 fL | Mono [4]: 6.6% | Neu [4]: 13.2% | PT [4]: 11.9 s | Plat [4]: 116.1 x10_4/uL | RBC [4]: 796.2 x10_4/ul | Ret [4]: 4.8% | WBC [4]: 122.5 x10_2/uL | KIDNEY_L [2]: 1.2 g | KIDNEY_R [2]: 1.3 g | KIDNEY_TOTAL [2]: 2.5 g | KIDNEY_L [3]: 1.3 g | KIDNEY_R [3]: 1.3 g | KIDNEY_TOTAL [3]: 2.7 g | KIDNEY_L [4]: 1.6 g | KIDNEY_R [4]: 1.6 g | KIDNEY_TOTAL [4]: 3.2 g | LIVER [2]: 13.2 g | LIVER [3]: 14.6 g | LIVER [4]: 17.7 g | A/G [2]: 1.6 | ALP [2]: 836.8 IU/L | ALT [2]: 30.8 IU/L | AST [2]: 58.4 IU/L | BUN [2]: 18.4 mg/dL | CRE [2]: 0.4 mg/dL | Ca [2]: 10.2 mg/dL | Cl [2]: 103.8 meq/L | DBIL [2]: 0.064 mg/dL | GLC [2]: 195.6 mg/dL | IP [2]: 7.3 mg/dL | K [2]: 4.8 meq/L | LDH [2]: 74.6 IU/L | Na [2]: 140 meq/L | PL [2]: 153.4 mg/dL | RALB [2]: 3.7 g/dL | TBIL [2]: 0.3 mg/dL | TC [2]: 74.2 mg/dL | TG [2]: 129.4 mg/dL | TP [2]: 6 g/dL | gamma-GTP [2]: 2 IU/L | A/G [3]: 2.3 | ALP [3]: 758.4 IU/L | ALT [3]: 32 IU/L | AST [3]: 62 IU/L | BUN [3]: 19.8 mg/dL | CRE [3]: 0.5 mg/dL | Ca [3]: 10.7 mg/dL | Cl [3]: 105.6 meq/L | DBIL [3]: 0.052 mg/dL | GLC [3]: 196.2 mg/dL | IP [3]: 6.8 mg/dL | K [3]: 4.7 meq/L | LDH [3]: 68.6 IU/L | Na [3]: 142 meq/L | PL [3]: 146.2 mg/dL | RALB [3]: 4.1 g/dL | TBIL [3]: 0.3 mg/dL | TC [3]: 68.8 mg/dL | TG [3]: 111.6 mg/dL | TP [3]: 5.8 g/dL | gamma-GTP [3]: 1.4 IU/L | A/G [4]: 1.8 | ALP [4]: 523.4 IU/L | ALT [4]: 31.6 IU/L | AST [4]: 55.6 IU/L | BUN [4]: 21.2 mg/dL | CRE [4]: 0.6 mg/dL | Ca [4]: 10.2 mg/dL | Cl [4]: 104.4 meq/L | DBIL [4]: 0.02 mg/dL | GLC [4]: 199.4 mg/dL | IP [4]: 6 mg/dL | K [4]: 4.6 meq/L | LDH [4]: 74.8 IU/L | Na [4]: 140.4 meq/L | PL [4]: 141.2 mg/dL | RALB [4]: 4 g/dL | TBIL [4]: 0.3 mg/dL | TC [4]: 69 mg/dL | TG [4]: 157.2 mg/dL | TP [4]: 6.2 g/dL | gamma-GTP [4]: 1.8 IU/L | TERMINAL_BW [5]: 240.4 g | APTT [5]: 17.3 s | Bas [5]: 0% | Eos [5]: 1.6% | Fbg [5]: 217.6 mg/dL | Hb [5]: 14.2 g/dL | Ht [5]: 42.2% | Lym [5]: 75% | MCH [5]: 21 pg | MCHC [5]: 33.7% | MCV [5]: 62.3 fL | Mono [5]: 6.6% | Neu [5]: 17.4% | PT [5]: 11.5 s | Plat [5]: 130.1 x10_4/uL | RBC [5]: 677.6 x10_4/ul | Ret [5]: 9.8% | WBC [5]: 94.2 x10_2/uL | KIDNEY_L [5]: 1.1 g | KIDNEY_R [5]: 1.1 g | KIDNEY_TOTAL [5]: 2.2 g | LIVER [5]: 12.2 g | A/G [5]: 1.8 | ALP [5]: 919.8 IU/L | ALT [5]: 34.4 IU/L | AST [5]: 60 IU/L | BUN [5]: 18 mg/dL | CRE [5]: 0.5 mg/dL | Ca [5]: 10.7 mg/dL | Cl [5]: 105.4 meq/L | DBIL [5]: 0.008 mg/dL | GLC [5]: 190.8 mg/dL | IP [5]: 7.2 mg/dL | K [5]: 4.6 meq/L | LDH [5]: 84 IU/L | Na [5]: 141.2 meq/L | PL [5]: 152.6 mg/dL | RALB [5]: 3.6 g/dL | TBIL [5]: 0.2 mg/dL | TC [5]: 80 mg/dL | TG [5]: 100.4 mg/dL | TP [5]: 5.6 g/dL | gamma-GTP [5]: 2 IU/L | TERMINAL_BW [6]: 280.6 g | TERMINAL_BW [7]: 330.7 g | TERMINAL_BW [8]: 406.9 g | APTT [6]: 16.9 s | Bas [6]: 0% | Eos [6]: 1% | Fbg [6]: 223.4 mg/dL | Hb [6]: 13.9 g/dL | Ht [6]: 41.1% | Lym [6]: 71% | MCH [6]: 21.2 pg | MCHC [6]: 34% | MCV [6]: 62.5 fL | Mono [6]: 9.4% | Neu [6]: 18.8% | PT [6]: 11.5 s | Plat [6]: 132.9 x10_4/uL | RBC [6]: 657.4 x10_4/ul | Ret [6]: 5% | WBC [6]: 131.2 x10_2/uL | APTT [7]: 16.8 s | Bas [7]: 0% | Eos [7]: 1.2% | Fbg [7]: 223 mg/dL | Hb [7]: 14.9 g/dL | Ht [7]: 43.6% | Lym [7]: 76.4% | MCH [7]: 20.7 pg | MCHC [7]: 34.1% | MCV [7]: 60.6 fL | Mono [7]: 4% | Neu [7]: 18% | PT [7]: 11.8 s | Plat [7]: 125.2 x10_4/uL | RBC [7]: 720.8 x10_4/ul | Ret [7]: 4.5% | WBC [7]: 124.4 x10_2/uL | APTT [8]: 17.4 s | Bas [8]: 0% | Eos [8]: 1.4% | Fbg [8]: 234.8 mg/dL | Hb [8]: 15.5 g/dL | Ht [8]: 45.4% | Lym [8]: 74% | MCH [8]: 19.8 pg | MCHC [8]: 34.2% | MCV [8]: 57.7 fL | Mono [8]: 6% | Neu [8]: 19.2% | PT [8]: 11.7 s | Plat [8]: 123.5 x10_4/uL | RBC [8]: 785.8 x10_4/ul | Ret [8]: 5.4% | WBC [8]: 154 x10_2/uL | KIDNEY_L [6]: 1.2 g | KIDNEY_R [6]: 1.2 g | KIDNEY_TOTAL [6]: 2.4 g | KIDNEY_L [7]: 1.4 g | KIDNEY_R [7]: 1.4 g | KIDNEY_TOTAL [7]: 2.7 g | KIDNEY_L [8]: 1.5 g | KIDNEY_R [8]: 1.6 g | KIDNEY_TOTAL [8]: 3.1 g | LIVER [6]: 13.8 g | LIVER [7]: 15 g | LIVER [8]: 17.7 g | A/G [6]: 1.6 | ALP [6]: 859.6 IU/L | ALT [6]: 31.8 IU/L | AST [6]: 57.2 IU/L | BUN [6]: 20 mg/dL | CRE [6]: 0.4 mg/dL | Ca [6]: 10.4 mg/dL | Cl [6]: 103.2 meq/L | DBIL [6]: 0.078 mg/dL | GLC [6]: 197.2 mg/dL | IP [6]: 6.8 mg/dL | K [6]: 5 meq/L | LDH [6]: 95.2 IU/L | Na [6]: 139.2 meq/L | PL [6]: 143.6 mg/dL | RALB [6]: 3.6 g/dL | TBIL [6]: 0.3 mg/dL | TC [6]: 71.8 mg/dL | TG [6]: 119.6 mg/dL | TP [6]: 5.9 g/dL | gamma-GTP [6]: 2 IU/L | A/G [7]: 2.3 | ALP [7]: 705.8 IU/L

From ChEMBL document CHEMBL3885861, “Open TG-GATES”
